Results from ChEMBL document CHEMBL3046063, “Synthesis and antimicrobial activity of 5-chloroindoline-2,3-dione derivatives” (2012).
Values after ≈ are worked out from the molar mass of the structure shown.

Experiments:
Format in all cases: functional
Pseudomonas aeruginosa = experiment: Antimicrobial activity against Pseudomonas aeruginosa ATCC 10145 after 24 hr by broth dilution method; conditions: ATCC 10145, 24 h
Staphylococcus aureus = experiment: Antimicrobial activity against Staphylococcus aureus ATCC 25923 after 24 hr by broth dilution method; conditions: ATCC 25923, 24 h
Alternaria alternata = experiment: Antimicrobial activity against Alternaria alternata ATCC 66868 after 24 hr by broth dilution method; conditions: ATCC 66868, 24 h
Aspergillus flavus = experiment: Antimicrobial activity against Aspergillus flavus ATCC 15517 after 24 hr by broth dilution method; conditions: ATCC 15517, 24 h
Aspergillus awamori = experiment: Antimicrobial activity against Aspergillus awamori ATCC 22342 after 24 hr by broth dilution method; conditions: ATCC 22342, 24 h
Rhizoctonia solani = experiment: Antimicrobial activity against Rhizoctonia solani ATCC 76131 after 24 hr by broth dilution method; conditions: ATCC 76131, 24 h
Trichophyton longifusum = experiment: Antimicrobial activity against Trichophyton longifusum ATCC 22397 after 24 hr by broth dilution method; conditions: ATCC 22397, 24 h
Proteus mirabilis = experiment: Antimicrobial activity against Proteus mirabilis ATCC 49565 after 24 hr by broth dilution method; conditions: ATCC 49565, 24 h
Escherichia coli = experiment: Antimicrobial activity against Escherichia coli ATCC 25922 after 24 hr by broth dilution method; conditions: ATCC 25922, 24 h
Candida albicans = experiment: Antimicrobial activity against Candida albicans ATCC 10231 after 24 hr by broth dilution method; conditions: ATCC 10231, 24 h
Klebsiella pneumoniae = experiment: Antimicrobial activity against Klebsiella pneumoniae ATCC 13883 after 24 hr by broth dilution method; conditions: ATCC 13883, 24 h
Microsporum canis = experiment: Antimicrobial activity against Arthroderma otae ATCC 11622 after 24 hr by broth dilution method; conditions: ATCC 11622, 24 h
Proteus vulgaris = experiment: Antimicrobial activity against Proteus vulgaris ATCC 13315 after 24 hr by broth dilution method; conditions: ATCC 13315, 24 h
Salmonella typhi = experiment: Antimicrobial activity against Salmonella enterica subsp. enterica serovar Typhi ATCC 19430 after 24 hr by broth dilution method; conditions: ATCC 19430, 24 h
Trichoderma viride = experiment: Antimicrobial activity against Hypocrea rufa ATCC 52440 after 24 hr by broth dilution method; conditions: ATCC 52440, 24 h
Bacillus pumilus = experiment: Antimicrobial activity against Bacillus pumilus ATCC 14884 after 24 hr by broth dilution method; conditions: ATCC 14884, 24 h
Bacillus cereus = experiment: Antimicrobial activity against Bacillus cereus ATCC 11778 after 24 hr by broth dilution method; conditions: ATCC 11778, 24 h
Micrococcus luteus = experiment: Antimicrobial activity against Micrococcus luteus ATCC 4698 after 24 hr by broth dilution method; conditions: ATCC 4698, 24 h
Aspergillus niger = experiment: Antimicrobial activity against Aspergillus niger ATCC 9142 after 24 hr by broth dilution method; conditions: ATCC 9142, 24 h
[1] = system: Staphylococcus epidermidis; experiment: Antimicrobial activity against Staphylococcus epidermidis ATCC 12228 after 24 hr by broth dilution method; conditions: ATCC 12228, 24 h
Fusarium solani = experiment: Antimicrobial activity against Fusarium solani ATCC 38136 after 24 hr by broth dilution method; conditions: ATCC 38136, 24 h
Bacillus spizizenii = experiment: Antimicrobial activity against Bacillus subtilis subsp. spizizenii ATCC 6633 after 24 hr by broth dilution method; conditions: ATCC 6633, 24 h
Staphylococcus hominis = experiment: Antimicrobial activity against Staphylococcus hominis ATCC 27844 after 24 hr by broth dilution method; conditions: ATCC 27844, 24 h
Aspergillus fumigatus = experiment: Antimicrobial activity against Aspergillus fumigatus after 24 hr by broth dilution method

Row | SMILES | MIC (Pseudomonas aeruginosa) | MIC (Staphylococcus aureus) | MIC (Alternaria alternata) | MIC (Aspergillus flavus) | MIC (Aspergillus awamori) | MIC (Rhizoctonia solani) | MIC (Trichophyton longifusum) | MIC (Proteus mirabilis) | MIC (Escherichia coli) | MIC (Candida albicans) | MIC (Klebsiella pneumoniae) | MIC (Microsporum canis) | MIC (Proteus vulgaris) | MIC (Salmonella typhi) | MIC (Bacillus pumilus) | MIC (Bacillus cereus) | MIC (Micrococcus luteus) | MIC [1] | MIC (Bacillus spizizenii) | MIC (Staphylococcus hominis) | also measured
1 | COc1ccc(C2SCC(=O)N2/N=C2\C(=O)Nc3ccc(Cl)cc32)cc1 (stereo not drawn) | 18.8 µg/mL (≈ 48.3 µM) | 18.8 µg/mL (≈ 48.3 µM) | 9.37 µg/mL (≈ 24.2 µM) | 9.37 µg/mL (≈ 24.2 µM) | 4.68 µg/mL (≈ 12.1 µM) | 9.37 µg/mL (≈ 24.2 µM) | 4.68 µg/mL (≈ 12.1 µM) | 9.37 µg/mL (≈ 24.2 µM) | 18.8 µg/mL (≈ 48.3 µM) | 4.68 µg/mL (≈ 12.1 µM) | 9.37 µg/mL (≈ 24.2 µM) | 9.37 µg/mL (≈ 24.2 µM) | 37.5 µg/mL (≈ 96.7 µM) | 9.37 µg/mL (≈ 24.2 µM) | 18.8 µg/mL (≈ 48.3 µM) | 18.8 µg/mL (≈ 48.3 µM) | 18.8 µg/mL (≈ 48.3 µM) | 9.37 µg/mL (≈ 24.2 µM) | 9.37 µg/mL (≈ 24.2 µM) | 18.8 µg/mL (≈ 48.3 µM) | MIC (Trichoderma viride): 4.68 µg/mL (≈ 12.1 µM); MIC (Aspergillus niger): 4.68 µg/mL (≈ 12.1 µM); MIC (Fusarium solani): 4.68 µg/mL (≈ 12.1 µM); MIC (Aspergillus fumigatus): 4.68 µg/mL (≈ 12.1 µM)
2 | O=C(O)c1cn(C2CC2)c2cc(N3CCNCC3)c(F)cc2c1=O [CIPROFLOXACIN] | 4.7 µg/mL (≈ 14.2 µM) | 4.7 µg/mL (≈ 14.2 µM) | – | – | – | – | – | 4.7 µg/mL (≈ 14.2 µM) | 4.7 µg/mL (≈ 14.2 µM) | – | 4.7 µg/mL (≈ 14.2 µM) | – | 4.7 µg/mL (≈ 14.2 µM) | 4.7 µg/mL (≈ 14.2 µM) | 4.7 µg/mL (≈ 14.2 µM) | 4.7 µg/mL (≈ 14.2 µM) | 4.7 µg/mL (≈ 14.2 µM) | 4.7 µg/mL (≈ 14.2 µM) | 4.7 µg/mL (≈ 14.2 µM) | 4.7 µg/mL (≈ 14.2 µM) | –
3 | O=C1Nc2ccc(Cl)cc2/C1=N/N1C(=O)C(Cl)C1c1ccco1 (stereo not drawn) | 37.5 µg/mL (≈ 107 µM) | 37.5 µg/mL (≈ 107 µM) | 37.5 µg/mL (≈ 107 µM) | 37.5 µg/mL (≈ 107 µM) | 37.5 µg/mL (≈ 107 µM) | 37.5 µg/mL (≈ 107 µM) | 18.8 µg/mL (≈ 53.5 µM) | 37.5 µg/mL (≈ 107 µM) | 37.5 µg/mL (≈ 107 µM) | 18.8 µg/mL (≈ 53.5 µM) | 75 µg/mL (≈ 214 µM) | 37.5 µg/mL (≈ 107 µM) | 37.5 µg/mL (≈ 107 µM) | 75 µg/mL (≈ 214 µM) | 37.5 µg/mL (≈ 107 µM) | 37.5 µg/mL (≈ 107 µM) | 37.5 µg/mL (≈ 107 µM) | 75 µg/mL (≈ 214 µM) | 75 µg/mL (≈ 214 µM) | 37.5 µg/mL (≈ 107 µM) | MIC (Trichoderma viride): 37.5 µg/mL (≈ 107 µM); MIC (Aspergillus niger): 18.8 µg/mL (≈ 53.5 µM); MIC (Fusarium solani): 37.5 µg/mL (≈ 107 µM); MIC (Aspergillus fumigatus): 18.8 µg/mL (≈ 53.5 µM)
4 | O=C1Nc2ccc(Cl)cc2/C1=N/N1C(=O)C(Cl)C1c1ccc(O)cc1 (stereo not drawn) | 9.37 µg/mL (≈ 24.9 µM) | 18.8 µg/mL (≈ 49.8 µM) | 4.68 µg/mL (≈ 12.4 µM) | 4.68 µg/mL (≈ 12.4 µM) | 4.68 µg/mL (≈ 12.4 µM) | 4.68 µg/mL (≈ 12.4 µM) | 4.68 µg/mL (≈ 12.4 µM) | 9.37 µg/mL (≈ 24.9 µM) | 9.37 µg/mL (≈ 24.9 µM) | 4.68 µg/mL (≈ 12.4 µM) | 18.8 µg/mL (≈ 49.8 µM) | 4.68 µg/mL (≈ 12.4 µM) | 9.37 µg/mL (≈ 24.9 µM) | 9.37 µg/mL (≈ 24.9 µM) | 9.37 µg/mL (≈ 24.9 µM) | 9.37 µg/mL (≈ 24.9 µM) | 18.8 µg/mL (≈ 49.8 µM) | 9.37 µg/mL (≈ 24.9 µM) | 9.37 µg/mL (≈ 24.9 µM) | 18.8 µg/mL (≈ 49.8 µM) | MIC (Trichoderma viride): 4.68 µg/mL (≈ 12.4 µM); MIC (Aspergillus niger): 4.68 µg/mL (≈ 12.4 µM); MIC (Fusarium solani): 9.37 µg/mL (≈ 24.9 µM); MIC (Aspergillus fumigatus): 4.68 µg/mL (≈ 12.4 µM)
5 | O=C1Nc2ccc(Cl)cc2/C1=N/N1C(=O)CSC1c1ccccc1O (stereo not drawn) | 300 µg/mL (≈ 803 µM) | 300 µg/mL (≈ 803 µM) | 75 µg/mL (≈ 201 µM) | 75 µg/mL (≈ 201 µM) | 150 µg/mL (≈ 401 µM) | 150 µg/mL (≈ 401 µM) | 150 µg/mL (≈ 401 µM) | 300 µg/mL (≈ 803 µM) | 300 µg/mL (≈ 803 µM) | 75 µg/mL (≈ 201 µM) | 300 µg/mL (≈ 803 µM) | 75 µg/mL (≈ 201 µM) | 150 µg/mL (≈ 401 µM) | 150 µg/mL (≈ 401 µM) | 150 µg/mL (≈ 401 µM) | 150 µg/mL (≈ 401 µM) | 150 µg/mL (≈ 401 µM) | 300 µg/mL (≈ 803 µM) | 150 µg/mL (≈ 401 µM) | 150 µg/mL (≈ 401 µM) | MIC (Trichoderma viride): 150 µg/mL (≈ 401 µM); MIC (Aspergillus niger): 150 µg/mL (≈ 401 µM); MIC (Fusarium solani): 150 µg/mL (≈ 401 µM); MIC (Aspergillus fumigatus): 150 µg/mL (≈ 401 µM)
6 | O=C1Nc2ccc(Cl)cc2/C1=N/N1C(=O)C(Cl)C1c1ccc(F)cc1 (stereo not drawn) | 18.8 µg/mL (≈ 49.6 µM) | 18.8 µg/mL (≈ 49.6 µM) | 4.68 µg/mL (≈ 12.4 µM) | 4.68 µg/mL (≈ 12.4 µM) | 4.68 µg/mL (≈ 12.4 µM) | 9.37 µg/mL (≈ 24.8 µM) | 9.37 µg/mL (≈ 24.8 µM) | 9.37 µg/mL (≈ 24.8 µM) | 18.8 µg/mL (≈ 49.6 µM) | 4.68 µg/mL (≈ 12.4 µM) | 18.8 µg/mL (≈ 49.6 µM) | 9.37 µg/mL (≈ 24.8 µM) | 18.8 µg/mL (≈ 49.6 µM) | 9.37 µg/mL (≈ 24.8 µM) | 18.8 µg/mL (≈ 49.6 µM) | 18.8 µg/mL (≈ 49.6 µM) | 18.8 µg/mL (≈ 49.6 µM) | 18.8 µg/mL (≈ 49.6 µM) | 9.37 µg/mL (≈ 24.8 µM) | 9.37 µg/mL (≈ 24.8 µM) | MIC (Trichoderma viride): 9.37 µg/mL (≈ 24.8 µM); MIC (Aspergillus niger): 4.68 µg/mL (≈ 12.4 µM); MIC (Fusarium solani): 9.37 µg/mL (≈ 24.8 µM); MIC (Aspergillus fumigatus): 9.37 µg/mL (≈ 24.8 µM)
